Test results from ChEMBL document CHEMBL1201862, “PubChem BioAssay data set” (2004).
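The compound was tested at five concentrations on cells cultured in 96-well plates, with a 48-hour exposure period. Here, GI50 denotes the concentration required for 50% inhibition of growth.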 The source made the active and inactive calls. Rule as the data show it: active = GI50 up to about 1.1 µM and inactive = higher.

Legend:
Assay in all cases: inhibition of tumour cell growth, NCI panel, 48 h
[1] = tested on: BT-549
[2] = tested on: EKVX
[3] = tested on: HL-60
[4] = tested on: HOP-62
[5] = tested on: HT-29
[6] = tested on: IGROV-1
[7] = tested on: LOX IMVI
[8] = tested on: MDA-MB-231
[9] = tested on: MDA-MB-435
[10] = tested on: MDA-N
[11] = tested on: MOLT-4
[12] = tested on: NCI-H226
[13] = tested on: NCI-H23
[14] = tested on: NCI-H460
[15] = tested on: PC-3
[16] = tested on: SN12C
[17] = tested on: SNB-75
[18] = tested on: T47D
[19] = tested on: U-251
[20] = tested on: UACC-62

Row | SMILES | GI50 [1] | GI50 [2] | GI50 [3] | GI50 [4] | GI50 [5] | GI50 [6] | GI50 [7] | GI50 [8] | GI50 [9] | GI50 [10] | GI50 [11] | GI50 [12] | GI50 [13] | GI50 [14] | GI50 [15] | GI50 [16] | GI50 [17] | GI50 [18] | GI50 [19] | GI50 [20]
1 | COc1cc(/C=C/c2ccc(C)cc2)cc(OC)c1OC | 5.68 µM (inactive) | 4.7 µM (inactive) | 2.97 µM (inactive) | 4.18 µM (inactive) | 2.69 µM (inactive) | 5.11 µM (inactive) | 6.14 µM (inactive) | 5 µM (inactive) | 1.14 µM (inactive) | 0.895 µM (active) | 3.91 µM (inactive) | 4.29 µM (inactive) | 2.9 µM (inactive) | 3.85 µM (inactive) | 2.67 µM (inactive) | 4.57 µM (inactive) | 2.58 µM (inactive) | 4.1 µM (inactive) | 3.78 µM (inactive) | 3.44 µM (inactive)
2 | COc1cc(OC)c2c(c1)OC(c1ccccc1)CC2=O (stereo not given) [DIMETHYLPINOCEMBRIN] | > 10 µM (inactive) | > 10 µM (inactive) | > 10 µM (inactive) | > 10 µM (inactive) | > 10 µM (inactive) | > 10 µM (inactive) | > 10 µM (inactive) | > 10 µM (inactive) | > 10 µM (inactive) | > 10 µM (inactive) | > 10 µM (inactive) | > 10 µM (inactive) | > 10 µM (inactive) | > 10 µM (inactive) | > 10 µM (inactive) | > 10 µM (inactive) | > 10 µM (inactive) | > 10 µM (inactive) | > 10 µM (inactive) | > 10 µM (inactive)
3 | CN1CCc2c(sc3nc(S)nc(S)c23)C1 | > 100 µM (inactive) | > 100 µM (inactive) | > 100 µM (inactive) | > 100 µM (inactive) | > 100 µM (inactive) | > 100 µM (inactive) | > 100 µM (inactive) | 39.5 µM (inactive) | > 100 µM (inactive) | > 100 µM (inactive) | > 100 µM (inactive) | > 100 µM (inactive) | > 100 µM (inactive) | > 100 µM (inactive) | > 100 µM (inactive) | > 100 µM (inactive) | > 100 µM (inactive) | > 100 µM (inactive) | 72.4 µM (inactive) | > 100 µM (inactive)
4 | C/C(=N\NC(=N)N)C(CN(C)C)C(c1ccccc1)c1c(O)c2ccccc2oc1=O (stereo not given) | 72.9 µM (inactive) | > 100 µM (inactive) | > 100 µM (inactive) | > 26.6 µM (inactive) | > 100 µM (inactive) | > 100 µM (inactive) | > 100 µM (inactive) | > 100 µM (inactive) | > 100 µM (inactive) | > 100 µM (inactive) | > 100 µM (inactive) | > 100 µM (inactive) | > 100 µM (inactive) | > 100 µM (inactive) | > 100 µM (inactive) | > 100 µM (inactive) | 98.4 µM (inactive) | 4.62 µM (inactive) | > 100 µM (inactive) | > 47.6 µM (inactive)
5 | O=C1C=C(Cl)C(=O)C(c2ccc(Cl)cc2)=C1 | 23.8 µM (inactive) | 14.8 µM (inactive) | 18.8 µM (inactive) | 21.1 µM (inactive) | 23.7 µM (inactive) | 15 µM (inactive) | 16.1 µM (inactive) | 17.1 µM (inactive) | 17.9 µM (inactive) | 13.3 µM (inactive) | 4.03 µM (inactive) | 20.2 µM (inactive) | 23.2 µM (inactive) | 79.6 µM (inactive) | 15.3 µM (inactive) | 22.7 µM (inactive) | 22.5 µM (inactive) | 13.7 µM (inactive) | 15.2 µM (inactive) | 17.4 µM (inactive)
6 | COc1ccc(C(CC(=O)c2ccc3c(c2)OCO3)c2c(O)oc3ccccc3c2=O)cc1OC (stereo not given) | 36.2 µM (inactive) | > 100 µM (inactive) | > 100 µM (inactive) | > 100 µM (inactive) | 72.6 µM (inactive) | > 100 µM (inactive) | 66.5 µM (inactive) | > 100 µM (inactive) | > 100 µM (inactive) | > 100 µM (inactive) | > 100 µM (inactive) | > 100 µM (inactive) | 78 µM (inactive) | 44.7 µM (inactive) | 88.5 µM (inactive) | > 100 µM (inactive) | > 100 µM (inactive) | > 100 µM (inactive) | > 100 µM (inactive) | 40.6 µM (inactive)
7 | CN1CCc2c(sc3ncn(N)c(=N)c23)C1 | > 100 µM (inactive) | > 100 µM (inactive) | > 100 µM (inactive) | > 100 µM (inactive) | > 100 µM (inactive) | > 100 µM (inactive) | > 100 µM (inactive) | > 100 µM (inactive) | > 100 µM (inactive) | > 100 µM (inactive) | > 100 µM (inactive) | 78.9 µM (inactive) | > 100 µM (inactive) | > 100 µM (inactive) | > 100 µM (inactive) | > 100 µM (inactive) | > 100 µM (inactive) | > 100 µM (inactive) | > 100 µM (inactive) | > 100 µM (inactive)
8 | c1ccc(CCN(Cc2nc3ccccc3[nH]2)Cc2nc3ccccc3[nH]2)cc1 | 12.1 µM (inactive) | 39.1 µM (inactive) | 2.41 µM (inactive) | 11.3 µM (inactive) | 17.3 µM (inactive) | 8.15 µM (inactive) | 10.1 µM (inactive) | 13.2 µM (inactive) | 12.4 µM (inactive) | 16.2 µM (inactive) | 6.59 µM (inactive) | 27.6 µM (inactive) | 16 µM (inactive) | 10 µM (inactive) | 11.5 µM (inactive) | 14.6 µM (inactive) | 16.4 µM (inactive) | 1.79 µM (inactive) | 6.59 µM (inactive) | 13.4 µM (inactive)
9 | Cc1ccc(NCC2CC/C(=C\c3ccc(Cl)cc3)C2=O)cc1 (stereo not given) | 15.3 µM (inactive) | 52.7 µM (inactive) | 2.16 µM (inactive) | 50 µM (inactive) | 12.4 µM (inactive) | 16.6 µM (inactive) | 6.03 µM (inactive) | 11.4 µM (inactive) | 14.4 µM (inactive) | 13.6 µM (inactive) | 3.84 µM (inactive) | > 76.6 µM (inactive) | 20.6 µM (inactive) | 21.7 µM (inactive) | 14.9 µM (inactive) | 13.1 µM (inactive) | > 100 µM (inactive) | 15.1 µM (inactive) | 17 µM (inactive) | 18.4 µM (inactive)
10 | CC1=NN(c2cccc(S(=O)(=O)O)c2)C2(C1)C(Cl)C(=O)N2c1nc2ccccc2s1 (stereo not given) | 5.5 µM (inactive) | 8.53 µM (inactive) | 2.61 µM (inactive) | 5.75 µM (inactive) | 7.98 µM (inactive) | 1.66 µM (inactive) | 1.25 µM (inactive) | 8.73 µM (inactive) | 6.85 µM (inactive) | 13.1 µM (inactive) | 2.88 µM (inactive) | 5.82 µM (inactive) | 4.61 µM (inactive) | 9.62 µM (inactive) | 10.5 µM (inactive) | 5.37 µM (inactive) | 4.05 µM (inactive) | 9.35 µM (inactive) | 5.85 µM (inactive) | 6.81 µM (inactive)
11 | CS(C)(=O)=N/C=C\C(=O)C(Cl)(Cl)Cl | > 100 µM (inactive) | > 100 µM (inactive) | > 100 µM (inactive) | 99.1 µM (inactive) | > 100 µM (inactive) | 93.5 µM (inactive) | > 100 µM (inactive) | > 100 µM (inactive) | > 100 µM (inactive) | 65.2 µM (inactive) | 53.8 µM (inactive) | > 100 µM (inactive) | > 100 µM (inactive) | > 100 µM (inactive) | 54 µM (inactive) | > 100 µM (inactive) | > 100 µM (inactive) | > 100 µM (inactive) | 79.1 µM (inactive) | 92.3 µM (inactive)
12 | NC(=S)N/N=C/c1c[nH]c2ccccc12 | > 100 µM (inactive) | 2.86 µM (inactive) | 33.7 µM (inactive) | > 100 µM (inactive) | > 100 µM (inactive) | > 100 µM (inactive) | > 100 µM (inactive) | > 100 µM (inactive) | > 100 µM (inactive) | > 100 µM (inactive) | 12.3 µM (inactive) | > 100 µM (inactive) | > 100 µM (inactive) | > 100 µM (inactive) | > 100 µM (inactive) | > 100 µM (inactive) | 41.9 µM (inactive) | 99.3 µM (inactive) | > 100 µM (inactive) | > 100 µM (inactive)
13 | CC(=O)Oc1cccc2c(/C=N/NC(N)=S)ncc(C)c12 | 1.28 µM (inactive) | 4.72 µM (inactive) | 0.931 µM (active) | 1.07 µM (active) | 4.48 µM (inactive) | 2.99 µM (inactive) | 0.596 µM (active) | 2.58 µM (inactive) | 4.29 µM (inactive) | 3.59 µM (inactive) | 0.385 µM (active) | 2.96 µM (inactive) | 0.746 µM (active) | 0.966 µM (active) | 1.9 µM (inactive) | 0.863 µM (active) | 4.03 µM (inactive) | 1.47 µM (inactive) | 1.01 µM (active) | 1.17 µM (inactive)
